Drawing on a melting point compilation (Tetko et al.; mined from patent text by program, amines drawn as free bases though some values may be those of a salt), this text covers melting point for 88 compounds.

Structures are written as SMILES.

What is called melting point is the temperature of the solid-liquid transition.

On to `Clc1ccccc1C(Cl)c1ccc(-c2ccccc2)cc1` (stereo not drawn), for which the melting point was 80 °C.

`N#Cc1cn(-c2c(Cl)cc(C(F)(F)F)cc2Cl)nc1F` displayed a melting point of 120 to 121 °C.

`CCCCCCC(Oc1ccc(C2=CCCCCCC2)cc1)C(=O)O` (stereo not drawn) came in with a melting point of 55 to 57 °C.

Regarding `CCCCCCOc1ccc2c(CBr)c(OCCCCCC)ccc2c1CBr`, the melting point was 110 to 112 °C.

`O=Cc1ccc(C2=NOC(c3cc(Cl)cc(Cl)c3)(C(F)(F)F)C2)cc1Cl` (stereo not drawn) gave a melting point of 129 to 130 °C. The figure for `C[C@H](c1ccccc1)n1c(=O)c2c(N3CCN(C)CC3)cc(Cl)cc2n(Cc2ccccc2)c1=O` is 108 to 115 °C; for `COc1ccc(S(=O)(=O)N(CCCO)c2ccc(Cl)cc2Cc2c(F)cccc2F)cc1OC` it is 138 °C; for `Cc1c(CC(=O)O)c2cc(OCc3ccccc3)ccc2n1Cc1ccc(Cl)cc1` it is 140 to 142 °C. The figure for `Cc1ccc(S(=O)(=O)n2c(-c3cn(C)c4ccc(-c5ccncc5)cc34)cc3cccnc32)cc1` is 82 to 85 °C; for `Cc1cccc(-n2nc(C)cc2-c2ccnc(C#N)c2)c1` it is 128 to 130 °C.

`CCn1ncc2c(NCC3CCCC(O)C3)c3cc([N+](=O)[O-])ccc3nc21` (stereo not drawn) displayed a melting point of 236 to 238 °C. `COc1cc(OC)nc(Oc2cccc(Cl)c2C(=O)O)n1`: the melting point lay in the range of 123 to 126 °C. The figure for `CNC(=O)c1cc(C(=O)NOCC2CC2)c(Nc2ccc(I)cc2C)c(F)c1F` is 198 to 202 °C; for `CNC(=O)N(C(=O)Nc1ccccc1)c1ccccc1` it is 145 to 147 °C. As to `COC(=O)CCNc1ccccc1CNC(=O)C1Cc2ccccc2N1S(=O)(=O)c1ccc(-c2ccc(F)cc2OC)cc1` (stereo not drawn), the melting point was 78 to 80 °C.

On to `COC(=O)C1OC(c2ccccc2)OCC1(C)C` (stereo not drawn), for which the melting point lay within 86.5 to 88 °C. The figure for `FC(F)(F)c1cccc(-c2cc(C(F)(F)F)n3ncc(-c4cccnc4)c3n2)c1` is 171 °C; for `CCOC(=O)NNc1ccc(-c2ccc(Br)cc2)nn1` it is 190 to 192 °C. `COC(=O)NC(=O)c1nc(Cl)c(Cl)[nH]1` had a melting point of 247 °C.

In turn, `COC(=O)c1cc(-c2ccc(S(C)(=O)=O)cc2)n(-c2ccc(F)cc2)c1C` yielded a melting point of 154 to 155 °C. The figure for `COc1ccc(OCC(O)CN2CCC(Nc3nc4c(C)cccc4n3Cc3nc(C)ccc3O)CC2)cc1` (stereo not drawn) is 227 °C; for `O=C(c1ccccc1F)c1cccc2c1N(C(=O)CBr)CC2` it is 136 °C; for `Cc1c[nH]c(Nc2ccc(C3=NNC(=O)CC3C)cc2)nc1=O` (stereo not drawn) it is 260 to 270 °C. As for `COc1cc(Cc2cnc(NCCCCc3ncccc3OC)[nH]c2=O)ccn1`, the figure is 72 to 74 °C; as for `CCOC(=O)c1c(C(C)C)c[nH]c1C`, 67 to 68.5 °C. As for `CN(C)C1(c2ccccc2)CCC(c2c[nH]c3ncccc23)CC1` (stereo not drawn), the figure is 130 to 133 °C. In turn, `CCOC(=O)Cc1c(-c2ccccc2)c2cc(C)c(Cl)cc2oc1=O` yielded a melting point of 132 to 133 °C. In turn, `C=CCC1(CCNC(=O)C2CCC2)c2cc(OC)ccc2CCC12OCCO2` (stereo not drawn) registered a melting point of 99 to 101 °C.

`Cn1ncnc1COc1nn2c(-c3ccccc3F)nncc2c1-c1c(F)cccc1F`: the melting point came out at 196 °C. Turning to `CCCCc1nc(N)c(N=Nc2ccccc2)c(=O)[nH]1`, the melting point fell in the range of 266 to 270 °C.

`COc1cc(C=CC#N)cc(OC)c1` yielded a melting point of 126 °C. With `COc1cc(C=O)cc2c(C)c(C)oc12`, the melting point lay in the range of 80 to 81 °C. The figure for `CCOC(=O)c1cc2c(C=O)c(OC[C@H]3CO3)ccc2[nH]1` is 152 to 154 °C; for `CCCOc1ccc(-c2ccc3c(c2)C=C(C(=O)OC)CCS3(=O)=O)cc1` it is 153 to 155 °C.

For the compound `ClC(Cl)=CCOc1cc(Cl)c(OCCC2COC(c3ccc(Cl)cc3)O2)c(Cl)c1` (stereo not drawn), the melting point was 84.1 °C. For `O=c1c2ccccc2sn1CCN1CCN(c2ccccc2)CC1`, the melting point lay within 115 to 117 °C.

`CCc1cn(C2OC(CNC(=O)C(C)Oc3c(Cl)cc(Cl)c(OC)c3Cl)C(O)C2F)c(=O)[nH]c1=O` (stereo not drawn) came in with a melting point of 210 to 211 °C. For the compound `O=C1NCCC[C@@H]1NS(=O)(=O)c1cccc(C(F)(F)F)c1`, the melting point lay in the range of 158 to 160 °C. As for `CCOC(=O)c1cccc(C(OC(=O)Nc2ccc3[nH]ncc3c2)[C@@H]2CCCCN2)c1` (stereo partly drawn), the figure is 174 °C. Consider `O=C(NC1CCN(Cc2ccccc2)CC1)c1cccc(OCc2ccc3ccccc3n2)c1`, for which the melting point lay in the range of 60 to 62 °C. The figure for `O=C(c1ccc2nonc2c1)N1C2CCC1CC(F)(F)C2` is 165 to 166 °C. The figure for `Cc1c(NC(=O)c2ccc(OCC3CCOC3)cc2)ccc2cc(CNC(C)C)cnc12` (stereo not drawn) is 106 °C. The figure for `CCC1(CC)CN(C(C)(C)C)C(=O)C(CC)(CC)N1OC(C)c1ccccc1` (stereo not drawn) is 85 to 90 °C. As to `CCCc1ccc(OCc2ccc(OCc3nc(-c4ccccc4)oc3C)cc2)cc1OCC(=O)OC`, the melting point was 100 to 101 °C. The figure for `CCCC(CCC)C(=O)NCC(=O)NCCCCCNC(=O)n1cc(F)c(=O)[nH]c1=O` is 117 to 118 °C; for `CCCCCCCN(CC(c1ccccc1)c1ccccc1)C(=O)Nc1c(C)cccc1C` it is 171 to 173 °C; for `CC(C)(C)n1nc2c(S)ncnc2c1O` it is over 300 °C. In turn, `O=[N+]([O-])c1ccc(Oc2cncc(Cl)c2)cc1` had a melting point of 80 to 82 °C. The figure for `O=C1c2cccc3cc4ccccc4c(c23)C(=O)N1CCCNCCCCNCCCN1C(=O)c2cccc3cc4ccccc4c(c23)C1=O` is 183 °C; for `Nc1cnc(-c2cc(Cl)cc(Cl)c2Cl)c(NC(=O)C2CC2)n1` it is 188 to 190 °C; for `COc1cc(N)c(Cl)cc1C(=O)NC1CCN(CC2CCN(C(=O)C3CCOCC3)CC2)CC1` it is 235 to 237 °C. The figure for `Cc1ccccc1C(=O)n1ccc(-c2ccc(C(=O)N3Cc4cccn4Cc4ccccc43)cc2)n1` is 170 to 173 °C. The figure for `CN(C)C(=O)NCc1cccc2c1CN(C1CCC(=O)NC1=O)C2=O` (stereo not drawn) is 169 to 171 °C; for `CCOC(=O)Nc1cc(OC2CCCC2)c(Cl)cc1F` it is 92.8 to 97.8 °C; for `CC(=O)N1CCC(c2nc(N)nc3ccccc23)CC1` it is 184 to 186 °C.

`CC(C)(C)OC(=O)CC[C@H](NC(=O)c1ccc(NCc2cnc(N)c(C#N)n2)cc1)C(=O)OC(C)(C)C` displayed a melting point of 71 to 78 °C.

The compound `CC(C)(C)OC(=O)Nc1ccc(C#Cc2ccc(Cl)cc2)cc1N` yielded a melting point of 170 to 173 °C. For `NS(=O)(=O)c1cc2c(cc1Cl)C(=O)N(CCCN1CCOCC1)C2=O`, the melting point lay within 190 to 191 °C.

`CN(C)C=Nc1nc(=O)n(S(=O)(=O)c2ccccc2)cc1F` had a melting point of 203 to 204 °C. As for `O=C(O)[C@H](Cc1ccccc1)NC(=O)[C@@H]1CCCN1S(=O)(=O)c1ccc([N+](=O)[O-])cc1`, the figure is 70 to 80 °C; as for `Nc1ncnc2c1nc(O)n2CCc1ccccc1`, 256 to 258 °C; as for `OCc1ccc(-c2ccc3nnn(Cc4ccc5ncccc5c4)c3n2)cc1`, 187 to 189 °C. The figure for `CC(C)(C)OC(=O)NCC(CC(=O)O)c1ccc(Cl)cc1` (stereo not drawn) is 139 to 141 °C. The figure for `CCOC(=O)N1CCc2c(sc3nc(-c4ccc(Cl)cc4)cn23)C1` is 156 to 159 °C. `CCCCc1ncc(/C(C)=C(\Cc2ccccc2)C(=O)O)n1Cc1ccccc1Cl` displayed a melting point of 206 to 207 °C.

`CCc1c(-c2cnccn2)ssc1=S` displayed a melting point of 121 °C. As for `O=C(O)CC[C@H](NC(=O)c1ccc(CCn2cnc3nccc-3c2O)cc1)C(=O)O`, the figure is over 230 °C. As for `Clc1ccc(Cl)c(-c2nnnn2Cc2cccnc2)c1`, the figure is 166 to 168 °C; as for `COc1ccc(C)cc1-c1cc2ccccc2[nH]1`, 119 °C. `CN1C(=O)c2ccccc2OC1(C)COc1ccc(N)cc1` (stereo not drawn) yielded a melting point of 162 to 164 °C. As to `CCOc1cc2c(Nc3ccc(Sc4nccn4C)c(Cl)c3)c(C#N)cnc2cc1F`, the melting point lay in the range of 251 to 254 °C. As for `CO[C@H]1[C@H](N2CCCC2)c2cc(C#N)ccc2OC1(C)C` (relative stereo), the figure is 108 to 109 °C. The figure for `CCOC(=O)CCc1sc(N)nc1-c1ccc(Cl)cc1` is 160 to 161 °C. Regarding `O=S(=O)(c1cnn(-c2c(Cl)cc(C(F)(F)F)cc2Cl)c1Br)C(F)(F)F`, the melting point was in the range of 90 to 91 °C. The compound `CSC(C)(C(=O)O)c1cccc(C2(c3ccccc3)OCCO2)c1` (stereo not drawn) yielded a melting point of 118 to 120 °C. As for `N=C(N)c1ccc(N2CC(CN3CCC(CC(=O)O)(C(=O)O)CC3)OC2=O)cc1` (stereo not drawn), the figure is 145 °C; as for `COc1cccc(C(=O)N2CCCC3=C2CCc2cc(Cl)ccc23)c1`, 133 °C; as for `CC12CC(CCF)C3C4CCC(=O)C=C4CCC3C1CCC2=O` (stereo not drawn), 85 °C.

In the case of `N#Cc1cccc(C2C3=C(CCS3)NC3=C2SCC3)c1`, the melting point came to 248 °C. The figure for `Cc1ccc(CCN2CCC[C@H](C(C#N)(c3ccccc3)c3ccccc3)C2)cc1` is 110 to 113 °C; for `CCC(NC(=O)c1ccccc1)C(=O)OC1CCCCC1` (stereo not drawn) it is 60 to 63 °C. On to `O=C(O)CCc1oc(-n2ncc3ccccc32)nc1-c1ccc(Cl)cc1`, for which the melting point is 204 to 205 °C.

The compound `CC(C#N)c1ccc(O)c(N)c1` (stereo not drawn) had a melting point of 110 to 112 °C.

As to `CCCCCCc1cc2c(cc1C(=O)O)C(C)(C)CCC2(C)C`, the melting point is 98 to 99 °C. The figure for `Clc1ccc2c(c1)oc1cc(OCCCBr)ccc12` is 83 to 85 °C.

Take `Cc1ccc(O)c2c1C(=O)C(=O)N2Cc1ccccc1`: the melting point is 255 to 262 °C.

Compound `COc1cc(OC)c2c(c1)OC(C(C)(C)C#N)CC2=O` (stereo not drawn) registered a melting point of 170 °C. Consider `COc1ccc(C2(C#N)CCC(C(N)=O)CC2)cc1OC1CCCC1` (stereo not drawn), for which the melting point was 100 to 102 °C.
